Data: US5622972A, “Method for treating a mammal infected with respiratory syncytial virus” (priority 1996, dated 1997)
Values joined by “and” are separate entries in the source; they are usually repeats but may differ in a detail not shown here. Equal values may be shown once. Read-outs that look alike come from different tables or passages of the source.

Experiments:
[1] = test system: respiratory syncytial virus (RSV A2); type: cell-based; conditions: human, hep-2 cells, 120 h, 200 µM
From the text: (§1) The tetrazolium based cell viability assay is based upon the ability of mitochondrial dehydrogenase which is present in viable cells to catalyze the reduction of a yellow tetrazolium salt known as MTT [3-(4,5-dimethylthiazol-2-yl)-2,5-diphenylthtiazolium bromide] to a dark blue/purple formazon product, generally as described by K. Rubino et al., J. Virological Methods, 39, 55-67 (1992)
RSV infection results in a marked reduction in cell viability and thus a lowered rate of formazan production. The assay method gives a very low absorbance value (practically zero) in wells which contain virus-infected cells and no compound or a compound which lacks anti-RSV activity. […]
(§2) The RSV inhibition assay was carried out as follows. […] Detached cells were resuspended and carefully dispersed in Minimal Essential Medium (MEM) (JRH Biosciences cat. #210-3510) containing 2% FBS (fetal bovine serum) and the concentration of viable cells was determined by trypan blue exclusion. […]
(§3) After the incubation period, MTT (Sigma Chemical Co., St. Louis, Mo., Cat. #M2128) was dissolved in serum free MEM to give a 3 mg/ml solution and 100 μl of MTT solution was added to each well and the plates further incubated for 2 hours at 37° C. […] The optical density of the formazan/isopropanol solution from each well was determined using a Dynatech MR5000 multiplate reader at 570 nm with a 630 nm reference. […]

[2] = Cytotoxicity in uninfected HEp-2 cells (MTT), same assay; type: cell-based; conditions: human, hep-2 cells
From the text: as §1
(§4) Formazan is only slightly soluble in aqueous solutions, and therefore appears as dark cell-associated crystals. The crystals may be readily solublized in an organic solvent and the absorbance of the resulting blue/purple solution may be quantified using a multi-well plate spectrophotometer.
(§5) RSV infection results in a marked reduction in cell viability and thus a lowered rate of formazan production. The assay method gives a very low absorbance value (practically zero) in wells which contain virus-infected cells and no compound or a compound which lacks anti-RSV activity. Compounds which inhibit RSV replication should prevent cell death and will therefore result in an increased intensity of color of the formazan solution. The measurement of viral growth as a function of cell viability allows the assay to be used for establishing levels of compound cytotoxicity in uninfected cells within the same assay. Thus, the assay provides a rapid colorimetric method for measuring RSV specific cytopathic effect.
(§6) The HEp-2 cells and RSV strain A2 virus which are used in the assay are publicly available and were obtained from the American Tissue Culture Collection. HEp-2 cells correspond to ATCC accession no. CCL32; and Respiratory Syncytial Virus, strain A2 corresponds to ATCC accession no. VR-1302. Respiratory syncytial virus was grown (i.e., multiplied) and titered in HEp-2 cells.
(§7) The RSV inhibition assay was carried out as follows. The assay was performed in 96 well microtiter plates seeded with 2.5×10^4 cells per well. To provide a sufficient number of cells to seed the plates, stock cultures of HEp-2 cells were first grown in tissue culture flasks to about 80-100% confluency. The cell layer was washed with room temperature PBS (without calcium and magnesium) and then trypsinized (JRH Biosciences cat. #59-22877P) in a minimal volume of trypsin solution at 37° C. to detach them from the growth surface. Detached cells were resuspended and carefully dispersed in Minimal Essential Medium (MEM) (JRH Biosciences cat. #210-3510) containing 2% FBS (fetal bovine serum) and the concentration of viable cells was determined by trypan blue exclusion. Cell density was adjusted to 2.5×10^5 viable cells/ml by further dilution in MEM+2% FBS.
(§8) Test compound(s) and positive control (ribavirin) were added and serially diluted in the microtiter plate to the desired concentrations (8 replicates/compound/concentration plus 8 control wells/plate which received no compound).
(§9) The cell suspension was divided into a first portion to which respiratory syncytial virus (RSV A2) was added at a multiplicity of infection of 1, and a second portion to which no virus was added. The virus-infected cell suspension was mixed by low speed vortexing and 100 μl of the virus-infected cell suspension was immediately added to half of the wells in the 96 well plate (corresponding to 4 replicates of each compound dilution). 100 μl of the virus-free cell suspension was added to the other half of the wells in the microtiter plate (corresponding to the other 4 replicates for each compound and dilution). A multiplicity of infection equal to 1 was selected based on the observation this concentration of virus is just sufficient to produce a cytopathic effect that essentially eliminated MTT metabolism in infected, untreated cells during the time course of the assay (determined previously by a viral dilution assay).
(§10) The plates were incubated at 37° C., 5% CO2 for 5 to 6 days. […]

HEp-2 cells = assay: as above; type: cell-based; conditions: 5 day assay, drug added on day 1, 7200 min
From the text: as §1, §4, §5, §6, §7, §8, §9, §10

[3] = test system: respiratory syncytial virus (RSV A2); assay: RSV inhibition assay: tetrazolium (MTT) based cell viability assay in RSV-infected HEp-2 cells (serial dilutions); conditions: for EC50: human respiratory syncytial virus
From the text: as §1, §4
RSV infection results in a marked reduction in cell viability and thus a lowered rate of formazan production. […] The measurement of viral growth as a function of cell viability allows the assay to be used for establishing levels of compound cytotoxicity in uninfected cells within the same assay. Thus, the assay provides a rapid colorimetric method for measuring RSV specific cytopathic effect.
as §6, §7, §8
as §9, with “dilution).” for “dilution). A multiplicity of infection equal to 1 was selected based on the observation this concentration of virus is just sufficient to produce a cytopathic effect that essentially eliminated MTT metabolism in infected, untreated cells during the time course of the assay (determined previously by a viral dilution assay).”
The plates were incubated at 37° C., 5% CO2 for 5 to 6 days.
After the incubation period, MTT (Sigma Chemical Co., St. Louis, Mo., Cat. #M2128) was dissolved in serum free MEM to give a 3 mg/ml solution and 100 μl of MTT solution was added to each well and the plates further incubated for 2 hours at 37° C. The reaction was stopped by aspiration of the media to chemical waste, being careful not to remove the formazan crystals, and 200 μl of isopropanol was added to the wells to dissolve the crystals.

[4] = Cytotoxicity in uninfected HEp-2 cells, single concentration of 200 μM replenished daily for 5 days; type: cell-based; conditions: human, solvent PBS (ribavirin: water)
From the text: as §1, §5, §6
as §2, with “follows. The assay was performed in 96 well microtiter plates seeded with 2.5×10^4 cells per well.” for “follows.”
The cell suspension was divided into a first portion to which respiratory syncytial virus (RSV A2) was added at a multiplicity of infection of 1, and a second portion to which no virus was added. […] A multiplicity of infection equal to 1 was selected based on the observation this concentration of virus is just sufficient to produce a cytopathic effect that essentially eliminated MTT metabolism in infected, untreated cells during the time course of the assay (determined previously by a viral dilution assay).
as §3

[5] = cited from earlier work

Which results are given for `NC(=O)c1ncn([C@@H]2O[C@H](CO)[C@@H](O)[C@H]2O)n1` [ribavirin, 1-beta-D-ribofuranosyl-1H-1,2,4-triazole-3-carboxamide]?
% CELL PROTECTION / % CYTOTOXICITY (CTI) [1]: 1.6; CC50 at 120 h ([2]; solvent water, 5 day assay, drug added on day 1): 38.3 µM; CC50 at 120 h ([2]; solvent water, 5 day assay, drug replenished daily): 40 µM; CC50 at 120 h ([2]; solvent water, 5 day assay, drug replenished on day [number not given]): 20.4 µM; CC50 at 120 h ([2]; solvent water, 6 day assay, drug added on day 1): 179 µM; CC50 (HEp-2 cells; solvent water): 32.4 µM and 62.8 µM and 52.4 µM; EC50 ([3]; HEp-2, 120 h, HEp-2, solvent water, 5 day assay, drug replenished daily): 0.1 µM; EC50 ([3]; HEp-2, 120 h, HEp-2, solvent water, 5 day assay, drug replenished on day [number not given]): 2.6 µM; EC50 ([3]; HEp-2, HEp-2, solvent water, 6 day assay, drug added on day 1): 19.1 µM; cytotoxicity at 120 h, 200 µM [4]: 65%

For `OCC1C(O)C(O)C(O)CN1CCCc1ccccc1` [compound 43, 1,5-(3-Phenylpropylimino)-1,5-dideoxy-D-glucitol], which cytotoxicity at 120 h, 200 µM [4] is on record?
Its cytotoxicity at 120 h, 200 µM is 10%.

With `CCCCN1C[C@H](O)[C@@H](O)[C@H](O)[C@H]1CO` [Ex. 6, 1,5-(Butylimino) -1,5-dideoxy-D-glucitol] as the compound, how does the CC50 at 120 h ([2]; solvent DMSO, 5 day assay, drug added on day 1) read?
Its CC50 at 120 h is 100 µM.

And the CC50 at 120 h ([2]; solvent DMSO, 6 day assay, drug added on day 1, extrapolated)?
The CC50 at 120 h was 365 µM.

And the CC50 at 120 h ([2]; solvent PBS, 5 day assay, drug added on day 1, extrapolated)?
The CC50 at 120 h was 76200 µM.

And the CC50 at 120 h ([2]; solvent PBS, 6 day assay, drug added on day 1, extrapolated)?
The CC50 at 120 h was 9400 µM.

What about the CC50 (HEp-2 cells; solvent DMSO) of the same compound?
Its CC50 is 156 µM.

And the EC50 ([3]; HEp-2, 120 h, HEp-2, solvent PBS, 5 day assay, drug replenished daily, read-out: ~EC50)?
Its EC50 is 45 µM.

What about the EC50 ([3]; HEp-2, 120 h, HEp-2, solvent PBS, 5 day assay, drug replenished on day [number not given], read-out: ~EC50) of the same compound?
Its EC50 is 185 µM.

What about the EC50 ([3]; HEp-2, HEp-2, solvent DMSO, 6 day assay, drug added on day 1, extrapolated, read-out: ~EC50) of the same compound?
The EC50 was 250 µM.

And the EC50 ([3]; HEp-2, HEp-2, solvent PBS, 6 day assay, drug added on day 1, read-out: ~EC50)?
Its EC50 is 431 µM.

And the CTI ([3]; solvent PBS, 5 day assay, drug added on day 1, from extrapolated CC50 and EC50)?
The CTI was 275.5.

And the CTI ([3]; solvent PBS, 6 day assay, drug added on day 1, from extrapolated CC50, 7200 min)?
The CTI was 21.8.

What about the cytotoxicity at 120 h, 200 µM [4] of the same compound?
The cytotoxicity at 120 h, 200 µM was 17%.

For `CCCCN1CC(OC(C)=O)C(OC(C)=O)C(OC(C)=O)C1COC(C)=O` [Ex. 7, 1,5-(Butylimino)-1,5-dideoxy-D-glucitol, tetraacetate], which “enzymatic conversion in vivo of prodrug” value [5] is on record?
The value was “enzymatically converted in vivo to the compound of Ex. 6”.

What about the cytotoxicity at 120 h, 200 µM [4] of the same compound?
The cytotoxicity at 120 h, 200 µM was 11%.
